Measured values reported in PMC11141866, “Pyrimidine depletion enhances targeted and immune therapy combinations in acute myeloid leukemia” (JCI Insight, 2024).
Where “and” joins values, the source holds several entries; their conditions need not be identical. Identical values can stand only once. Like-named read-outs stand apart in the source and are kept apart here.

What was measured:
[1] = target: T1, human DHODH (hDHODH, amino acid residues 31-395) (Homo sapiens, UniProt Q02127); test: Cell-free human DHODH enzyme inhibition assay; type: biochemical
T1 construct: purchased Reaction Biology (assay run there as a service)
Description: Details are described in the Supplemental Methods. […]
Enzyme inhibition of human DHODH […]
performed at Reaction Biology (Malvern, PA, USA). Briefly, a two-step fluorescence-based assay was used to test compounds in duplicates using a 10-dose IC50 mode with 3-fold serial dilution starting at 1 µM or 10 µM. The enzymatic step for hDHODH (used at […]
to orotate and followed by resazurin (used at 60 or 80 µM per reaction) catalyzed to […]
resorufin. […]

[2] = target: Mouse DHODH (Mus musculus, UniProt O35435); test: Cell-free multi-species DHODH enzyme inhibition assay, mouse; type: biochemical; conditions: n=1
[3] = target: Rat DHODH (Rattus norvegicus, UniProt Q63707); test: Cell-free multi-species DHODH enzyme inhibition assay, rat; type: biochemical; conditions: n=1
[4] = tested on: MOLM-13 AML cell line; test: In vitro uridine rescue assay (MTS, Combenefit); type: cell-based, human; conditions: MOLM-13, exogenous uridine, n=3
Description: In vitro analysis of the antagonistic activity of uridine to HOSU-53 efficacy on MOLM-13 cells was done using MTS proliferation assay with increasing concentrations of uridine, HOSU-53, or the combination. Three biological replicates were analyzed using Combenefit software with mathematical models for highest single agent ([48]).

[5] = tested on: panel of approximately 450 human kinases; test: KINOMEscan profiling; type: binding; conditions: 10 μM
Description: Supplemental Figure S.1. HOSU-53 KINOMEscan™ Profiling. Eurofins DiscoverX KINOMEscan®
Profiling was conducted using 10 μM HOSU-53 to investigate the presence of any off-target kinase
(1 picture or pasted object on this page, not shown here)

[6] = tested on: plasma DHO; test: DHO plasma accumulation in MOLM-13 tumor-bearing mice; type: in vivo, NCG mice; set-up: unit not given here; conditions: male mice, per mouse
Description: Male 8- to 12-week-old NCG mice were engrafted with 1 × 10^5 cells via tail vein i.v. injection. […] Figure 3B and Figure 4, A and B, share the same vehicle group. page 6: Plasma samples were obtained following appropriate dosing administration and saved in the -80°C freezer till the time of analysis. Analyses by LC-MS/MS followed sample extraction by protein precipitation and separation by Ultra Performance Liquid Chromatography (UPLC, Waters Corporation, MA, USA) using a C18 column, 1.7um, 2.1x50mm, Mobile Phase A: 5:95:0.1 (v:v:v) Acetonitrile:Water:Formic Acid, Mobile Phase B: 50:50:0.1 (v:v:v) Methanol:Acetonitrile:Formic Acid. MS/MS analyses were performed on an API-6500 (Absciex MA, USA) in positive mode using an electrospray source at 550°C. The internal standard was d4-AEA monitored at 352.2 and 66.0 m/z transitions and the target analyte, HOSU-53, was monitored at 416.5 and 331.1 m/z transitions. The assay was qualified between 10-5,000 ng/ml HOSU53 to be within ±20% for QCs above the LLOQ in this range and ±25% at the LLOQ. DHO concentration quantification in mouse plasma samples. Plasma samples were obtained following appropriate dosing administration and saved in the -80°C freezer till the time of analysis. Analyses by LC-MS/MS followed sample extraction by protein precipitation and separation by Ultra Performance Liquid Chromatography (UPLC, Waters Corporation, MA, USA) using a Phenomenex Aqua C18 100x4.6mm, 3uM, […], Mobile Phase A: 100:0.1 (v:v) Water:Formic Acid, Mobile Phase B: 100:0.1 (v:v) Methanol:Formic Acid. MS/MS analyses were performed on an API-4000 (Absciex MA, USA) in negative mode using an electrospray source at 550°C. The internal standard was labeled 13C14_L-Dihydroorotic Acid monitored at 161.3 and 117.1 m/z transitions and the target analyte, L-Dihydroorotic Acid (DHO), was monitored at 157.0 and 70.0 m/z transitions. The assay was qualified between 10.0-30,000 ng/ml DHO to be within ±20% for QCs above the LLOQ in this range and ±25% at the LLOQ.

[7] = target: CYP 2C8 (Homo sapiens, UniProt P10632); test: CYP inhibition 2C8; type: in vitro ADME
Excerpt: (§1) Supplement jciinsight-9-173646-s083.xlsx, sheet "Supplemental Table S.2." | column: HOSU-53

[8] = target: hERG (Homo sapiens, UniProt Q12809); test: hERG (Q-Patch); type: cell-based
Excerpt: as §1

[9] = Protein binding, AAG; type: in vitro ADME; conditions: 0.07% AAG
Excerpt: as §1

T1 sequence (Q02127 31-395): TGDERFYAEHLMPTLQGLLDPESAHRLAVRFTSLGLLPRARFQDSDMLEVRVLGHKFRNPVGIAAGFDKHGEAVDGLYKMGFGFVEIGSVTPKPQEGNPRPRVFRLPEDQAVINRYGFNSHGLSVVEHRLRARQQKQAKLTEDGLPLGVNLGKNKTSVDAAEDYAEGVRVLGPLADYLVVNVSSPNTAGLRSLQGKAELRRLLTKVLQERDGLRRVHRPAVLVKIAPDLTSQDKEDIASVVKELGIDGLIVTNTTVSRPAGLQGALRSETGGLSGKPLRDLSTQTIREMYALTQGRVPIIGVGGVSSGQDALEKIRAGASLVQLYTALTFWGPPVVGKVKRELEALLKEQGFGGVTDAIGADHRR
Chain of hERG (Q12809 whole entry): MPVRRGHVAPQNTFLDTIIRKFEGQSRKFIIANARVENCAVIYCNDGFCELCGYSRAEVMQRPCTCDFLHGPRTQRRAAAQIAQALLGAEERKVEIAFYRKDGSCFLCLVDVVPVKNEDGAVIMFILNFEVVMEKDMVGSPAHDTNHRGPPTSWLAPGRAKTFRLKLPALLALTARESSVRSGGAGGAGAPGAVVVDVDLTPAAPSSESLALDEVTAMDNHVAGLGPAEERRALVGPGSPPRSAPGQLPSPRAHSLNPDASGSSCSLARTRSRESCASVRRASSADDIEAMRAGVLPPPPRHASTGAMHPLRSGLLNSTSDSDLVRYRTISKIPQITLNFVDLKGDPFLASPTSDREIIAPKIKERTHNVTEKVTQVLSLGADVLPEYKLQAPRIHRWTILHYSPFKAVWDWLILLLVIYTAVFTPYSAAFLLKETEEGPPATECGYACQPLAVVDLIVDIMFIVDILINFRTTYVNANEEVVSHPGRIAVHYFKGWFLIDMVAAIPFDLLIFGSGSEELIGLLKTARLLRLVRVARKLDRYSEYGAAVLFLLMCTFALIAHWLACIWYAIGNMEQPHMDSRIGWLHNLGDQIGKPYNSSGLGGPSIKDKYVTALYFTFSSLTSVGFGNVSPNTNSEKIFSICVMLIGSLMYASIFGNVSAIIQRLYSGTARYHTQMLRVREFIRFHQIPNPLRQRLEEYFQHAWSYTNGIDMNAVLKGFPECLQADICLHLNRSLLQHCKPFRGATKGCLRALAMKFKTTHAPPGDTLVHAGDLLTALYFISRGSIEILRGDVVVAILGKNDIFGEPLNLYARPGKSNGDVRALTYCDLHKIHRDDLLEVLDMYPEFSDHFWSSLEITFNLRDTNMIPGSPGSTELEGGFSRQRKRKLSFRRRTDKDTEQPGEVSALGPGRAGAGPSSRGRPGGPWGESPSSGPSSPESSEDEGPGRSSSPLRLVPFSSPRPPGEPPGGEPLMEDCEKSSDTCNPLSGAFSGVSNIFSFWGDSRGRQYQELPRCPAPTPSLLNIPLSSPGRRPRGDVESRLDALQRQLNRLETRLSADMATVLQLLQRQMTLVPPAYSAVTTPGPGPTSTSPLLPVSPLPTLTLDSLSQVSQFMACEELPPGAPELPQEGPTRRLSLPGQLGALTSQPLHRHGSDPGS
Chain of Mouse DHODH (O35435 whole entry): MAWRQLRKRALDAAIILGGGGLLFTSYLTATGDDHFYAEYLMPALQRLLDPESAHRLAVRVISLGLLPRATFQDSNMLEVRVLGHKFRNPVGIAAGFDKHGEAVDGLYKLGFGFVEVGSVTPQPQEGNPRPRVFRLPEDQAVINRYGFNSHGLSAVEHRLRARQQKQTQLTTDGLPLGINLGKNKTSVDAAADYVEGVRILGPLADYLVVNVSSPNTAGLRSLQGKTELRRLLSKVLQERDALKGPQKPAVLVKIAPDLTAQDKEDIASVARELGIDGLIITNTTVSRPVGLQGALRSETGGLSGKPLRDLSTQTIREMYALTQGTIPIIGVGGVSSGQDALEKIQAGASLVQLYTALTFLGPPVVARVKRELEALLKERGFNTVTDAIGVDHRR
Chain of Rat DHODH (Q63707 whole entry): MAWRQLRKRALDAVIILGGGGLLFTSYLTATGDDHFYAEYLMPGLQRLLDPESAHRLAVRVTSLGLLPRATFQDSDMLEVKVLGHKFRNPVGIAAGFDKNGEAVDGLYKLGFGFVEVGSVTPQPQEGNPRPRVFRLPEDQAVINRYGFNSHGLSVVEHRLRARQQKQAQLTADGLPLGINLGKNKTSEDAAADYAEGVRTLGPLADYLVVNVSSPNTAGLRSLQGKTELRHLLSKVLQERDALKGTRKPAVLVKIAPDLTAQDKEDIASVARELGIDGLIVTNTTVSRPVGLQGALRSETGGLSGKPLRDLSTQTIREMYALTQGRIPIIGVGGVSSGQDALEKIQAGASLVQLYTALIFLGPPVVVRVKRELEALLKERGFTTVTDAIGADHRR
Chain of CYP 2C8 (P10632 whole entry): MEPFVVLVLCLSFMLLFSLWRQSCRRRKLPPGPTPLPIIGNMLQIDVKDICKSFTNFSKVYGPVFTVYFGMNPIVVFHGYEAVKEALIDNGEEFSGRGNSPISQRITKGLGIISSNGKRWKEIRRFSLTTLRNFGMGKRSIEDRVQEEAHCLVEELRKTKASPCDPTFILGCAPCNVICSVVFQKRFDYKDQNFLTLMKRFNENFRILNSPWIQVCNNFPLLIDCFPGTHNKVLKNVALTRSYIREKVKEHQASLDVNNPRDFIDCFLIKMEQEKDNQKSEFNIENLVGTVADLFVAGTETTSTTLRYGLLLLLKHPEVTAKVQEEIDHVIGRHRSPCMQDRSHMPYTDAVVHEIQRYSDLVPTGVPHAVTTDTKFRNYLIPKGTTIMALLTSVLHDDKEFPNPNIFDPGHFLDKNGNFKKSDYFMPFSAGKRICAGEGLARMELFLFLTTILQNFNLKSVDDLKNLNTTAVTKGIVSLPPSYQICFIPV

In the case of CCCCOc1cccc(-c2ccc(-c3cc(C(=O)O)c4cc(F)ccc4n3)cc2)c1 [HOSU-53], the IC50 ([1]; cell-free multi-species assay, n=1, read-out: DHODH IC50 Human) is reported as 0.69 nM, the IC50 ([1]; cell-free, HOSU-53, BAY, BRQ averaged from 6, 10, 4 replicates, read-out: hDHODH IC50) is reported as 0.95 nM and the IC50 [2] is reported as 2.1 nM. The IC50 [3] was 7.65 nM, the “uridine concentration at which metabolic resistance to HOSU-53 activity emerges” value [4] was “above 25 μM” and the “alternative-target activity against kinase panel” value [5] was “lack of alternative-target activity”. The “DHO AUC (Figure 3C y value)” value ([6]; Day 1, 4 mpk PO, 4 mg/kg) was 21.3526 and 23.5341 and 32.163, the “DHO AUC (Figure 3C y value)” value ([6]; Day 1, 10 mpk PO, 10 mg/kg) was 124.368 and 142.962 and the “DHO AUC (Figure 3C y value)” value ([6]; Day 1, 20 mpk PO, 20 mg/kg) was 335.03 and 368.431. For the same molecule, the “DHO AUC (Figure 3C y value)” value ([6]; Day 1, 30 mpk PO, 30 mg/kg) was 473.057 and 298.48 and 280.181, the “DHO AUC (Figure 3C y value)” value ([6]; Day 14, 4 mpk PO, 4 mg/kg) was 78.3977 and 135.263 and 128.423 and the “DHO AUC (Figure 3C y value)” value ([6]; Day 14, 10 mpk PO, 10 mg/kg) was 243.197 and 313.781 and 310.505. The “DHO AUC (Figure 3C y value)” value ([6]; Day 14, 20 mpk PO, 20 mg/kg) was 796.864 and 742.741 and 1170.82, the “DHO AUC (Figure 3C y value)” value ([6]; Day 14, 30 mpk PO, 30 mg/kg) was 464.129 and 594.047 and 535.223 and the IC50 [7] was 1820 nM. For the same molecule, the IC50 [8] was > 30000 nM and the fraction unbound [9] was 0.015.
